# Measurements: patent US10314308B2, “Microbiocidal benzoxaboroles” (SYNGENTA PARTICIPATIONS AG, priority 2015, dated 2019)
# How the values were obtained:
# [1] = system: Mycosphaerella Arachidis(Cercospora Arachidicola); assay: Mycosphaerella arachidis (Cercospora arachidicola) / liquid culture (early leaf spot); assay type: cell-based; settings: PDB potato dextrose broth, 24° C., 4-5 days after application, read-out: disease control (inhibition of growth, photometrically)
# Protocol: (§1) 11 Mycosphaerella Arachidis(Cercospora Arachidicola)/Liquid Culture (Early Leaf Spot) Conidia of the fungus from cryogenic storage were directly mixed into nutrient broth (PDB potato dextrose broth). After placing a DMSO solution of test compound into a 96-well microtiter plate, the nutrient broth containing the fungal spores was added. The test plates were incubated at 24° C. and the inhibition of growth was determined photometrically 4-5 days after application.
# Fusarium Culmorum = assay: microbe, parasite or virus in culture; assay type: cell-based; settings: read-out: disease control (inhibition of growth, photometrically)
# Pythium Ultimum = assay: Pythium ultimum / liquid culture (seedling damping off); assay type: cell-based; settings: Globisporangium ultimum, potato dextrose broth, 24° C., 2-3 days after application, read-out: disease control (inhibition of growth, photometrically)
# [2] = system: Thanatephorus Cucumeris(Rhizoctonia Solani); assay: Thanatephorus cucumeris (Rhizoctonia solani) / liquid culture (foot rot, damping-off); assay type: cell-based; settings: PDB potato dextrose broth, 24° C., 3-4 days after application, read-out: disease control (inhibition of growth, photometrically)
# Protocol: 16 Thanatephorus Cucumeris(Rhizoctonia Solani)/Liquid Culture (Foot Rot, Damping-Off) Mycelia fragments of a newly grown liquid culture of the fungus were directly mixed into nutrient broth (PDB potato dextrose broth). After placing a DMSO solution of the test compounds into a 96-well microtiter plate at an application rate of 200 ppm, the nutrient broth containing the fungal material was added. The test plates were incubated at 24° C. and the inhibition of growth was determined photometrically 3-4 days after application.
# [3] = system: Mycosphaerella Graminicola(Septoria Tritici); assay: Mycosphaerella graminicola (Septoria tritici) / liquid culture (Septoria blotch); assay type: cell-based; settings: Zymoseptoria tritici, PDB potato dextrose broth, 24° C., 4-5 days after application, read-out: disease control (inhibition of growth, photometrically)
# Protocol: as §1, with “12” for “11”, “Graminicola(Septoria Tritici)/Liquid” for “Arachidis(Cercospora Arachidicola)/Liquid”, “(Septoria Blotch)” for “(Early Leaf Spot)”
# Plasmopara Viticola = assay: whole plant or invertebrate; assay type: in vivo; settings: foliar, read-out: disease control
# [4] = system: Monographella Nivalis(Microdochium Nivale); assay: Monographella nivalis (Microdochium nivale) / liquid culture (foot rot cereals); assay type: cell-based; settings: PDB potato dextrose broth, 24° C., 4-5 days after application, read-out: disease control (inhibition of growth, photometrically)
# Protocol: as §1, with “14 Monographella Nivalis(Microdochium Nivale)/Liquid” for “11 Mycosphaerella Arachidis(Cercospora Arachidicola)/Liquid”, “(Foot Rot Cereals)” for “(Early Leaf Spot)”
# [5] = system: Botryotinia Fuckeliana(Botrytis Cinerea); assay: Botryotinia fuckeliana (Botrytis cinerea) / liquid culture (gray mould); assay type: cell-based; settings: Vogels broth, 24° C., 3-4 days after application, read-out: disease control (inhibition of growth, photometrically)
# Protocol: as §1, with “9 Botryotinia Fuckeliana(Botrytis Cinerea)/Liquid” for “11 Mycosphaerella Arachidis(Cercospora Arachidicola)/Liquid”, “(Gray Mould)” for “(Early Leaf Spot)”, “(Vogels” for “(PDB potato dextrose”, “3-4” for “4-5”
# Sclerotinia Sclerotiorum = assay: Sclerotinia sclerotiorum / liquid culture (cottony rot); assay type: cell-based; settings: PDB potato dextrose broth, 24° C., 3-4 days after application, read-out: disease control (inhibition of growth, visually)
# Protocol: 17 Sclerotinia Sclerotiorum/Liquid Culture (Cottony Rot) Mycelia fragments of a newly grown liquid culture of the fungus were directly mixed into nutrient broth (PDB potato dextrose broth). After placing a (DMSO) solution of the test compounds into a microtiter plate (96-well format) the nutrient broth containing the fungal material was added. The test plates were incubated at 24° C. and the inhibition of growth was determined visually 3-4 days after application.
# [6] = system: Phaeosphaeria Nodorum (Septoria Nodorum); assay: Phaeosphaeria nodorum (Septoria nodorum) / wheat / leaf disc preventative (glume blotch); assay type: in vivo; settings: Parastagonospora nodorum, foliar, wheat leaf segments cv Kanzler, inoculated 2 days after application, assessed 5-7 days after application, read-out: disease control
# Protocol: 5 Phaeosphaeria Nodorum (Septoria Nodorum)/Wheat/Leaf Disc Preventative (Glume Blotch) Wheat leaf segments cv Kanzler were placed on agar in a 24-well plate and sprayed with formulated test compound diluted in water. The leaf disks were inoculated with a spore suspension of the fungus 2 days after application. The inoculated test leaf disks were incubated at 20° C. and 75% relative humidity under a light regime of 12/12 h (light/dark) in a climate cabinet and the activity of a compound was assessed as percent disease control compared to untreated when an appropriate level of disease damage appears in untreated check leaf disks (5-7 days after application).
# [7] = system: Glomerella Lagenarium(Colletotrichum Ladenarium); assay: Glomerella lagenarium (Colletotrichum lagenarium) / liquid culture (anthracnose); assay type: cell-based; settings: PDB potato dextrose broth, 24° C., 3-4 days after application, read-out: disease control (inhibition of growth, photometrically)
# Protocol: as §1, with “10 Glomerella Lagenarium(Colletotrichum Ladenarium)/Liquid” for “11 Mycosphaerella Arachidis(Cercospora Arachidicola)/Liquid”, “(Anthracnose)” for “(Early Leaf Spot)”, “measured” for “determined”, “3-4” for “4-5”
# Gaeumannomyces Graminis = assay: Gaeumannomyces graminis / liquid culture (take-all of cereals); assay type: cell-based; settings: PDB potato dextrose broth, 24° C., 4-5 days after application, read-out: disease control (inhibition of growth, photometrically)
# Protocol: 13 Gaeumannomyces Graminis/Liquid Culture (Take-all of Cereals) Mycelial fragments of the fungus from cryogenic storage were directly mixed into nutrient broth (PDB potato dextrose broth). After placing a DMSO solution of test compound into a 96-well microtiter plate, the nutrient broth containing the fungal spores is added. The test plates were incubated at 24° C. and the inhibition of growth was determined photometrically 4-5 days after application.
# [8] = system: Puccinia Recondita f. sp. Tritici; assay: Puccinia recondita f. sp. tritici / wheat / leaf disc preventative (brown rust); assay type: in vivo; settings: foliar, wheat leaf segments cv Kanzler, inoculated 1 day after application, assessed 7-9 days after application, read-out: disease control
# Protocol: 3 Puccinia Recondita f. sp. Tritici/Wheat/Leaf Disc Preventative (Brown Rust) Wheat leaf segments cultivated variety (cv) Kanzler were placed on agar in 24-well plates and sprayed with formulated test compound diluted in water. The leaf disks were inoculated with a spore suspension of the fungus 1 day after application. The inoculated leaf segments were incubated at 19° C. and 75% relative humidity under a light regime of 12/12 h (light/dark) in a climate cabinet and the activity of a compound was assessed as percent disease control compared to untreated when an appropriate level of disease damage appears in untreated check leaf segments (7-9 days after application).
SMILES,inhibition at 20 ppm [1],inhibition at 20 ppm (Fusarium Culmorum),inhibition at 20 ppm (Pythium Ultimum),inhibition at 20 ppm [2],inhibition at 20 ppm [3],pest or weed control at 200 ppm (Plasmopara Viticola),inhibition at 20 ppm [4],inhibition at 20 ppm [5],inhibition at 20 ppm (Sclerotinia Sclerotiorum),pest or weed control at 200 ppm [6],melting point,inhibition at 20 ppm [7],inhibition at 20 ppm (Gaeumannomyces Graminis),pest or weed control at 200 ppm [8]
"OB1OCc2cc(Cl)c(-c3ccco3)cc21 [Compound 2, 5-chloro-6-(2-furyl)-1-hydroxy-3H-2,1-benzoxaborole]",≥ 80%,≥ 80%,≥ 80%,≥ 80%,≥ 80%,≥ 80%,≥ 80%,≥ 80%,≥ 80%,≥ 80%,142 to 147 °C,≥ 80%,–,–
"OB1OCc2cc(F)c(-c3ccsc3)cc21 [Compound 12, 5-fluoro-1-hydroxy-6-(3-thienyl)-3H-2,1-benzoxaborole]",≥ 80%,≥ 80%,≥ 80%,≥ 80%,≥ 80%,≥ 80%,≥ 80%,≥ 80%,≥ 80%,–,–,–,≥ 80%,≥ 80%
OB1OCc2cc(Cl)c(-c3cncs3)cc21 [Compound 25],≥ 80%,≥ 80%,≥ 80%,≥ 80%,≥ 80%,≥ 80%,≥ 80%,≥ 80%,≥ 80%,≥ 80%,–,≥ 80%,≥ 80%,–
CO/N=C/c1ccc(-c2cc3c(cc2F)COB3O)o1 [Compound 28],–,–,≥ 80%,–,≥ 80%,–,–,–,–,–,125 to 140 °C,≥ 80%,–,≥ 80%
Cc1ccc(-c2cc3c(cc2Cl)COB3O)s1 [Compound 38],≥ 80%,≥ 80%,≥ 80%,≥ 80%,≥ 80%,≥ 80%,≥ 80%,≥ 80%,≥ 80%,–,–,≥ 80%,≥ 80%,≥ 80%
OB1OCc2ccc(-c3ncno3)cc21 [Compound 49],≥ 80%,≥ 80%,≥ 80%,≥ 80%,≥ 80%,≥ 80%,≥ 80%,≥ 80%,≥ 80%,≥ 80%,179 to 180 °C,≥ 80%,≥ 80%,–
Cc1cscc1-c1cc2c(cc1F)COB2O [Compound 50],≥ 80%,≥ 80%,≥ 80%,≥ 80%,≥ 80%,≥ 80%,≥ 80%,≥ 80%,≥ 80%,≥ 80%,–,≥ 80%,≥ 80%,–
Cc1cc(-c2cc3c(cc2Cl)COB3O)c(C#N)o1 [Compound 66],–,–,≥ 80%,–,–,≥ 80%,–,–,–,–,–,–,≥ 80%,≥ 80%
COc1nccc(-c2cc3c(cc2Cl)COB3O)c1Cl [Compound 73],≥ 80%,≥ 80%,≥ 80%,≥ 80%,≥ 80%,≥ 80%,≥ 80%,≥ 80%,≥ 80%,–,–,≥ 80%,≥ 80%,≥ 80%
Cc1cc(-c2cc3c(cc2Cl)COB3O)c(C)s1 [Compound 90],≥ 80%,–,≥ 80%,≥ 80%,≥ 80%,–,≥ 80%,–,–,–,–,≥ 80%,≥ 80%,≥ 80%
